The conditions of test [1]: wild-type versus CB1 receptor knockout mice; cited from earlier work.
For test [2] the following is noted: doses of 5, 10 and 20 mg daily; cited from earlier work.
Test [3] concerns the target T1, human cannabis CB1 receptor (Homo sapiens, UniProt P21554).
T1 construct: expressed in transfected cells; host or cells: human embryonic kidney (HEK) cells, Semliki Forest Virus system
As to the kind of experiment: Affinity for cannabinoid CB1 receptors, [3H]-CP-55,940 radioligand binding on HEK cell membranes. The protocol: The affinity of the compounds of the invention for cannabinoid CB1 receptors was determined using membrane preparations of human embryonic kidney (HEK) cells in which the human cannabis CB1 receptor is transiently transfected using the Semliki Forest Virus system in conjunction with [3H]-CP-55,940 as radioligand. After incubation of a freshly prepared cell membrane preparation with the [3H]-ligand, with or without addition of compounds of the invention, separation of bound and free ligand was performed by filtration over glassfiber filters. Radioactivity on the filter was measured by liquid scintillation counting.
The compounds of formula (I) show an excellent affinity for the CB1 receptor, determined with the experimental conditions described in Devane et. al. Mol. Pharmacol. 34 (1988) 605-613.

Setting [4] is: affinity for the CB1 receptor, HEK membranes, [3H]-CP-55,940, read-out: IC50.

Where two headings read alike, the source gives them in different places.

Consider four compounds from US7786128B2, “Indole or benzimidazole derivatives as CB1 inverse agonists” (Hoffmann-La Roche Inc., priority 2004, dated 2010).

As a reminder, the IC50 is the concentration at which inhibition is half-maximal.

T1 sequence (P21554 whole entry): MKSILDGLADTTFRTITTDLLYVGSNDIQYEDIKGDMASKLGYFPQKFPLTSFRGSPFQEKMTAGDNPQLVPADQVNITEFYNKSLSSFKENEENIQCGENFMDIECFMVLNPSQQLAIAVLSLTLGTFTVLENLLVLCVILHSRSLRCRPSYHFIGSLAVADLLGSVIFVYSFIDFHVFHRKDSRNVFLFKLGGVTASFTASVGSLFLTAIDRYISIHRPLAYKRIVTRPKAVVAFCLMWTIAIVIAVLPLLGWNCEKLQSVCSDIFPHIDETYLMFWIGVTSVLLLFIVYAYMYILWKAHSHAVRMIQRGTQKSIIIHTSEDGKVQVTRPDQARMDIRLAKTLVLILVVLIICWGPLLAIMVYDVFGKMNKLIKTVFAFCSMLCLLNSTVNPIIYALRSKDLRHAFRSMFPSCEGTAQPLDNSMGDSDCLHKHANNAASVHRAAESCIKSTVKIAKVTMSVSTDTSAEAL

On to `Cc1c(C(=O)NN2CCCCC2)nn(-c2ccc(Cl)cc2Cl)c1-c1ccc(Cl)cc1` [SR 141716], for which the food intake result in test [1] is recorded as “reduces food intake in wild-type but not knockout mice”. Also, the “body weight compared to placebo” value in test [2] was “significantly reduced body weight”.
Turning to `CCCCNC(=O)c1ccc2c(c1)nc(COc1ccccc1)n2Cc1ccc(OC(F)(F)F)cc1` [Example 61, 2-Phenoxymethyl-1-(4-trifluoromethoxy-benzyl)-1H-benzoimidazole-5-carboxylic acid butyl-amide], the concentration for half-maximal inhibition (IC50) in test [3] (setting [4]) amounted to 30 nM.
Same read-out and setting: next, `CCCCNC(=O)c1ccc2c(c1)cc(COc1ccccc1)n2Cc1ccc(OC(F)(F)F)cc1` [Example 101, 2-phenoxymethyl-1-(4-trifluoromethoxy-benzyl)-1H-indole-5-carboxylic acid butylamide]: 20 nM.
In test [3], `CC(Oc1ccccc1)c1nc2ccc(N3CCN(S(=O)(=O)N(C)C)CC3)cc2n1Cc1ccc(Cl)cc1` (centres unmarked) [Example 51, 4-[3-(4-chloro-benzyl)-2-(1-phenoxy-ethyl)-3H-benzoimidazol-5-yl]-piperazine-1-sulfonic acid dimethylamide] returned an IC50 of 60 nM.
